# Measured values published in ChEMBL document CHEMBL1201862, “PubChem BioAssay data set” (2004).
#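 Cells were grown in 96-well plates and exposed to each compound for 48 hours at five concentrations; endpoints were interpolated linearly between bracketing concentrations, or set to the highest concentration if not reached. The concentration for 50% growth inhibition is given as GI50.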 Calls of active or inactive are those of the source. Cut-off read from the data, not from the text of the source: active = GI50 up to about 1.1 µM and inactive = higher.
# What was measured:
# Assay in all cases: NCI-60 cell line screen, 48 h
# [1] = test system: Hs-578T
# [2] = test system: OVCAR-5
# [3] = test system: SNB-19
# [4] = test system: NCI/ADR-RES
# [5] = test system: DU-145
# [6] = test system: HOP-62
# [7] = test system: NCI-H226
# [8] = test system: BT-549
# [9] = test system: HCT-116
# [10] = test system: NCI-H460
# [11] = test system: EKVX
# [12] = test system: A549
# [13] = test system: SNB-75
# [14] = test system: CCRF-CEM
# [15] = test system: HT-29
# [16] = test system: HCT-15
# [17] = test system: HL-60
# [18] = test system: SR
# [19] = test system: RPMI-8226
# [20] = test system: IGROV-1
# [21] = test system: RXF 393
# [22] = test system: OVCAR-8
# [23] = test system: TK-10
# [24] = test system: CAKI-1
# [25] = test system: SF-268
# [26] = test system: MOLT-4
# [27] = test system: SK-MEL-28
# [28] = test system: M14
# [29] = test system: OVCAR-4
# [30] = test system: K562
# [31] = test system: NCI-H522
# [32] = test system: UO-31
# [33] = test system: KM12
# [34] = test system: U-251
# [35] = test system: SF-295
# [36] = test system: MCF7
# [37] = test system: SN12C
# [38] = test system: SW-620
# [39] = test system: 786-0
# [40] = test system: UACC-62
# [41] = test system: SK-MEL-2
# [42] = test system: MDA-MB-231
# [43] = test system: T47D
# [44] = test system: SK-MEL-5
# [45] = test system: Malme-3M
# [46] = test system: HOP-92
# [47] = test system: COLO 205
# [48] = test system: UACC-257
# [49] = test system: MDA-N
# [50] = test system: PC-3
# [51] = test system: ACHN
# [52] = test system: HCC 2998
# [53] = test system: MDA-MB-435
# [54] = test system: LOX IMVI
# [55] = test system: SK-OV-3
# [56] = test system: SF-539
# [57] = test system: OVCAR-3
# [58] = test system: NCI-H23
smiles,measurement,setting,value
COc1cc(-c2cc(=O)c3c(OC)c(OC)c(OC)c(OC)c3o2)c(OC)c(OC)c1OC,GI50,[1],19.8 µM (inactive)
same,GI50,[2],> 100 µM (inactive)
same,GI50,[3],98.6 µM (inactive)
same,GI50,[4],17.9 µM (inactive)
same,GI50,[5],43.4 µM (inactive)
same,GI50,[6],> 100 µM (inactive)
same,GI50,[7],38.1 µM (inactive)
same,GI50,[8],17.6 µM (inactive)
same,GI50,[9],30.7 µM (inactive)
same,GI50,[10],36.1 µM (inactive)
same,GI50,[11],66.8 µM (inactive)
same,GI50,[12],48.1 µM (inactive)
same,GI50,[13],16.4 µM (inactive)
same,GI50,[14],50.7 µM (inactive)
same,GI50,[15],31 µM (inactive)
same,GI50,[16],30.3 µM
same,GI50,[17],46.7 µM (inactive)
same,GI50,[18],27.4 µM (inactive)
same,GI50,[19],24.5 µM (inactive)
same,GI50,[20],12.3 µM (inactive)
same,GI50,[21],28.6 µM (inactive)
same,GI50,[22],28.6 µM (inactive)
same,GI50,[23],61.7 µM (inactive)
same,GI50,[24],27.5 µM (inactive)
same,GI50,[25],63.1 µM (inactive)
same,GI50,[26],72.6 µM (inactive)
same,GI50,[27],42.5 µM (inactive)
same,GI50,[28],51.5 µM (inactive)
same,GI50,[29],30.7 µM (inactive)
same,GI50,[30],60.3 µM (inactive)
same,GI50,[31],20.7 µM (inactive)
same,GI50,[32],21.6 µM (inactive)
same,GI50,[33],21.9 µM (inactive)
same,GI50,[34],48.1 µM (inactive)
same,GI50,[35],43.8 µM (inactive)
same,GI50,[36],47.2 µM (inactive)
same,GI50,[37],35.2 µM (inactive)
same,GI50,[38],45.3 µM (inactive)
same,GI50,[39],47.5 µM (inactive)
same,GI50,[40],21.2 µM (inactive)
same,GI50,[41],20.5 µM (inactive)
same,GI50,[42],24.3 µM (inactive)
same,GI50,[43],16.2 µM (inactive)
same,GI50,[44],36.1 µM (inactive)
same,GI50,[45],23.8 µM (inactive)
same,GI50,[46],13.9 µM (inactive)
same,GI50,[47],45.8 µM (inactive)
same,GI50,[48],42.3 µM (inactive)
same,GI50,[49],41.4 µM (inactive)
same,GI50,[50],14.3 µM (inactive)
same,GI50,[51],22 µM (inactive)
same,GI50,[52],49.3 µM (inactive)
same,GI50,[53],45.8 µM (inactive)
same,GI50,[54],32.1 µM (inactive)
same,GI50,[55],76.7 µM (inactive)
same,GI50,[56],47.8 µM (inactive)
c1cc2cc3c4c5c(cc6ccc7cc8cc9c%10c8c8c7c6c5c8c5c%10c(c1C9N1CCOCCOCCOCCOCCOCC1)c2c45)C3 (stereo unspecified),GI50,[1],> 100 µM (inactive)
same,GI50,[2],> 100 µM (inactive)
same,GI50,[3],> 100 µM (inactive)
same,GI50,[4],> 100 µM (inactive)
same,GI50,[5],> 100 µM (inactive)
same,GI50,[6],> 100 µM (inactive)
same,GI50,[7],> 100 µM (inactive)
same,GI50,[8],> 100 µM (inactive)
same,GI50,[9],> 100 µM (inactive)
same,GI50,[10],> 100 µM (inactive)
same,GI50,[11],> 100 µM (inactive)
same,GI50,[12],> 100 µM (inactive)
same,GI50,[13],> 100 µM (inactive)
same,GI50,[14],> 100 µM (inactive)
same,GI50,[15],> 100 µM (inactive)
same,GI50,[16],> 100 µM
same,GI50,[17],> 100 µM (inactive)
same,GI50,[18],> 100 µM (inactive)
same,GI50,[19],> 100 µM (inactive)
same,GI50,[20],> 100 µM (inactive)
same,GI50,[21],> 100 µM (inactive)
same,GI50,[22],> 100 µM (inactive)
same,GI50,[23],> 100 µM (inactive)
same,GI50,[57],> 100 µM (inactive)
same,GI50,[25],> 100 µM (inactive)
same,GI50,[26],> 100 µM (inactive)
same,GI50,[27],> 100 µM (inactive)
same,GI50,[28],> 100 µM (inactive)
same,GI50,[58],> 100 µM (inactive)
same,GI50,[29],> 100 µM (inactive)
same,GI50,[30],> 100 µM (inactive)
same,GI50,[31],> 100 µM (inactive)
same,GI50,[32],> 100 µM (inactive)
same,GI50,[33],> 100 µM (inactive)
same,GI50,[34],> 100 µM (inactive)
same,GI50,[35],> 100 µM (inactive)
same,GI50,[36],> 100 µM (inactive)
same,GI50,[37],> 100 µM (inactive)
same,GI50,[38],> 100 µM (inactive)
same,GI50,[39],> 100 µM (inactive)
same,GI50,[40],> 100 µM (inactive)
same,GI50,[41],> 100 µM (inactive)
same,GI50,[42],> 100 µM (inactive)
same,GI50,[43],> 100 µM (inactive)
same,GI50,[44],78.9 µM (inactive)
same,GI50,[45],> 100 µM (inactive)
same,GI50,[46],> 100 µM (inactive)
same,GI50,[47],> 100 µM (inactive)
same,GI50,[48],> 100 µM (inactive)
same,GI50,[49],> 100 µM (inactive)
same,GI50,[50],> 100 µM (inactive)
same,GI50,[51],> 100 µM (inactive)
same,GI50,[52],> 100 µM (inactive)
same,GI50,[53],> 100 µM (inactive)
same,GI50,[54],> 100 µM (inactive)
same,GI50,[55],> 100 µM (inactive)
same,GI50,[56],> 100 µM (inactive)
CC(Br)C(=O)NN1C2=C(Nc3ccccc31)c1cccc3cccc2c13 (stereo unspecified),GI50,[1],58.9 µM (inactive)
same,GI50,[2],> 100 µM (inactive)
same,GI50,[3],> 100 µM (inactive)
same,GI50,[4],65.2 µM (inactive)
same,GI50,[5],> 100 µM (inactive)
same,GI50,[6],22 µM (inactive)
same,GI50,[7],> 100 µM (inactive)
same,GI50,[8],> 100 µM (inactive)
same,GI50,[9],> 100 µM (inactive)
same,GI50,[10],49.4 µM (inactive)
same,GI50,[11],> 100 µM (inactive)
same,GI50,[12],57.9 µM (inactive)
same,GI50,[13],40.9 µM (inactive)
same,GI50,[14],61.4 µM (inactive)
same,GI50,[15],49.1 µM (inactive)
same,GI50,[16],66.1 µM
same,GI50,[17],57.5 µM (inactive)
same,GI50,[18],41 µM (inactive)
same,GI50,[19],48.4 µM (inactive)
same,GI50,[20],34.4 µM (inactive)
same,GI50,[21],> 100 µM (inactive)
same,GI50,[22],55.8 µM (inactive)
same,GI50,[23],96.4 µM (inactive)
same,GI50,[57],49.3 µM (inactive)
same,GI50,[24],74 µM (inactive)
same,GI50,[25],> 100 µM (inactive)
same,GI50,[26],36.6 µM (inactive)
same,GI50,[27],> 100 µM (inactive)
same,GI50,[28],> 100 µM (inactive)
same,GI50,[58],> 100 µM (inactive)
same,GI50,[30],> 100 µM (inactive)
same,GI50,[31],92 µM (inactive)
same,GI50,[32],> 100 µM (inactive)
same,GI50,[33],> 100 µM (inactive)
same,GI50,[34],41.5 µM (inactive)
same,GI50,[35],39.3 µM (inactive)
same,GI50,[36],34.5 µM (inactive)
same,GI50,[37],> 100 µM (inactive)
same,GI50,[38],> 100 µM (inactive)
same,GI50,[39],45.9 µM (inactive)
same,GI50,[42],> 100 µM (inactive)
same,GI50,[43],2.29 µM (inactive)
same,GI50,[44],62.1 µM (inactive)
same,GI50,[45],> 100 µM (inactive)
same,GI50,[47],75.5 µM (inactive)
same,GI50,[48],48.2 µM (inactive)
same,GI50,[49],90.6 µM (inactive)
same,GI50,[50],> 100 µM (inactive)
same,GI50,[51],31.2 µM (inactive)
same,GI50,[52],13.5 µM (inactive)
same,GI50,[53],> 100 µM (inactive)
same,GI50,[54],41.4 µM (inactive)
same,GI50,[56],> 100 µM (inactive)
